Measurements from ChEMBL document CHEMBL5321210, “N-adamantyl-anthranil amide derivatives: New selective ligands for the cannabinoid receptor subtype 2 (CB2R)” (Eur J Med Chem, 2023).
The source made the active and inactive calls. No cut-off for these calls is given here.

Legend:
THP-1 [1] = test: Antiinflammatory activity against LPS-activated human THP-1 monocytes assessed as decrease in IFN-gamma production at 10 uM incubated for 24 hrs by ELISA coupled qRT-PCR analysis; format: functional, cell-based
THP-1 [2] = test: Antiinflammatory activity in LPS-activated PMA-differentiated human THP-1 macrophages assessed as increase in IL-10 production at 1 to 10 uM incubated for 24 hrs in the presence of JTE907 by ELISA coupled qRT-PCR analysis; format: functional, cell-based; details: dose 1-10 µM
THP-1 [3] = test: Antiinflammatory activity against LPS-activated human THP-1 monocytes assessed as increase in IL-10 production at 10 uM incubated for 24 hrs by ELISA coupled qRT-PCR analysis; format: functional, cell-based
THP-1 [4] = test: Antiinflammatory activity in human THP-1 monocytes assessed as decrease in IL-6 production at 1 to 10 uM incubated for 24 hrs in the presence of JTE907 by ELISA coupled qRT-PCR analysis; format: functional, cell-based; details: dose 1-10 µM
THP-1 [5] = test: Antiinflammatory activity against LPS-activated human THP-1 monocytes assessed as decrease in TNF-alpha production at 10 uM incubated for 24 hrs by ELISA coupled qRT-PCR analysis; format: functional, cell-based
THP-1 [6] = test: Antiinflammatory activity in PMA-differentiated human THP-1 macrophages assessed as decrease in IL-1beta production at 1 to 10 uM incubated for 24 hrs in the presence of JTE907 by ELISA coupled qRT-PCR analysis; format: functional, cell-based; details: dose 1-10 µM
THP-1 [7] = test: Antiinflammatory activity against LPS-activated human THP-1 monocytes assessed as decrease in IL-6 production at 10 uM incubated for 24 hrs by ELISA coupled qRT-PCR analysis; format: functional, cell-based
THP-1 [8] = test: Antiinflammatory activity against LPS-activated human THP-1 monocytes assessed as decrease in IL-1beta production at 10 uM incubated for 24 hrs by ELISA coupled qRT-PCR analysis; format: functional, cell-based
THP-1 [9] = test: Antiinflammatory activity against LPS-activated PMA-differentiated human THP-1 macrophages assessed as decrease in IL-6 production at 1 to 10 uM incubated for 24 hrs by ELISA coupled qRT-PCR analysis relative to control; format: functional; set-up: scale not given: the % may be the effect or the level left; details: dose 1-10 µM
THP-1 [10] = test: Antiinflammatory activity in human THP-1 monocytes assessed as decrease in TNF-alpha production at 1 to 10 uM incubated for 24 hrs in the presence of JTE907 by ELISA coupled qRT-PCR analysis; format: functional, cell-based; details: dose 1-10 µM
THP-1 [11] = test: Antiinflammatory activity in human THP-1 monocytes assessed as decrease in TNF-alpha production incubated for 24 hrs by ELISA coupled qRT-PCR analysis; format: functional, cell-based; details: dose 1-10 µM
THP-1 [12] = test: Antiinflammatory activity in LPS-activated PMA-differentiated human THP-1 macrophages assessed as decrease in IFN-gamma production at 1 to 10 uM incubated for 24 hrs in the presence of JTE907 by ELISA coupled qRT-PCR analysis; format: functional, cell-based; details: dose 1-10 µM
THP-1 [13] = test: Antiinflammatory activity in human THP-1 monocytes assessed as decrease in TNF-alpha production at 10 uM incubated for 24 hrs by ELISA coupled qRT-PCR analysis relative to control; format: functional; set-up: scale not given: the % may be the effect or the level left
THP-1 [14] = test: Antiinflammatory activity against LPS-activated human THP-1 monocytes assessed as increase in IL-4 production at 10 uM incubated for 24 hrs by ELISA coupled qRT-PCR analysis; format: functional, cell-based
THP-1 [15] = test: Antiinflammatory activity in human THP-1 monocytes assessed as decrease in IL-6 production at 10 uM incubated for 24 hrs by ELISA coupled qRT-PCR analysis relative to control; format: functional; set-up: scale not given: the % may be the effect or the level left
THP-1 [16] = test: Antiinflammatory activity in PMA-differentiated human THP-1 macrophages assessed as reduction in TNF-alpha production at 1 to 10 uM incubated for 24 hrs by ELISA coupled qRT-PCR analysis relative to control; format: functional; set-up: scale not given: the % may be the effect or the level left; details: dose 1-10 µM
THP-1 [17] = test: Antiinflammatory activity in PMA-differentiated human THP-1 macrophages assessed as decrease in TNF-alpha production at 1 to 10 uM incubated for 24 hrs in the presence of JTE907 by ELISA coupled qRT-PCR analysis; format: functional, cell-based; details: dose 1-10 µM
THP-1 [18] = test: Antiinflammatory activity in human THP-1 monocytes assessed as decrease in IL-1beta production at 10 uM incubated for 24 hrs by ELISA coupled qRT-PCR analysis relative to control; format: functional; set-up: scale not given: the % may be the effect or the level left
THP-1 [19] = test: Antiinflammatory activity in human THP-1 monocytes assessed as decrease in IFN-gamma production at 10 uM incubated for 24 hrs by ELISA coupled qRT-PCR analysis relative to control; format: functional; set-up: scale not given: the % may be the effect or the level left
THP-1 [20] = test: Antiinflammatory activity against LPS-activated PMA-differentiated human THP-1 macrophages assessed as decrease in IL-1beta production at 10 uM incubated for 24 hrs by ELISA coupled qRT-PCR analysis relative to control; format: functional; set-up: scale not given: the % may be the effect or the level left
THP-1 [21] = test: Antiinflammatory activity in PMA-differentiated human THP-1 monocytes assessed as increase in IL-4 production at 10 uM incubated for 24 hrs in the presence of N-(adamantan-1-yl)-4-(pentylamino)-[1,1'-biphenyl]-3-carboxamide by ELISA coupled qRT-PCR analysis; format: functional, cell-based
THP-1 [22] = test: Antiinflammatory activity in human THP-1 monocytes assessed as increase in IL-4 production at 10 uM incubated for 24 hrs by ELISA coupled qRT-PCR analysis; format: functional, cell-based
THP-1 [23] = test: Antiinflammatory activity in PMA-differentiated human THP-1 monocytes assessed as decrease in TNF-alpha production at 10 uM incubated for 24 hrs in the presence of N-(adamantan-1-yl)-4-(pentylamino)-[1,1'-biphenyl]-3-carboxamide by ELISA coupled qRT-PCR analysis; format: functional, cell-based
THP-1 [24] = test: Antiinflammatory activity against LPS-activated PMA-differentiated human THP-1 macrophages assessed as decrease in TNF-alpha production at 10 uM incubated for 24 hrs by ELISA coupled qRT-PCR analysis relative to control; format: functional; set-up: scale not given: the % may be the effect or the level left
THP-1 [25] = test: Antiinflammatory activity in human THP-1 monocytes assessed as decrease in IFN-gamma production at 10 uM incubated for 24 hrs in the presence of N-(adamantan-1-yl)-4-(pentylamino)-[1,1'-biphenyl]-3-carboxamide by ELISA coupled qRT-PCR analysis; format: functional, cell-based
THP-1 [26] = test: Antiinflammatory against LPS-activated human THP-1 monocytes assessed as decrease in IL-6 production at 10 uM incubated for 24 hrs in the presence of JTE907 by ELISA coupled qRT-PCR analysis; format: functional, cell-based
THP-1 [27] = test: Antiinflammatory activity in human THP-1 monocytes assessed as decrease in TNF-alpha production at 10 uM incubated for 24 hrs in the presence of JTE907 by ELISA coupled qRT-PCR analysis; format: functional, cell-based
THP-1 [28] = test: Antiinflammatory activity in PMA-differentiated human THP-1 monocytes assessed as decrease in IL-6 production at 10 uM incubated for 24 hrs in the presence of N-(adamantan-1-yl)-4-(pentylamino)-[1,1'-biphenyl]-3-carboxamide by ELISA coupled qRT-PCR analysis; format: functional, cell-based
THP-1 [29] = test: Antiinflammatory activity in human THP-1 monocytes assessed as increase in IL-10 production at 10 uM incubated for 24 hrs by ELISA coupled qRT-PCR analysis; format: functional, cell-based
THP-1 [30] = test: Antiinflammatory activity in PMA-differentiated human THP-1 macrophages assessed as reduction in IL-1beta production at 10 uM incubated for 24 hrs by ELISA coupled qRT-PCR analysis relative to control; format: functional; set-up: scale not given: the % may be the effect or the level left

SMILES | Activity (THP-1 [1]) | Activity (THP-1 [3]) | Activity (THP-1 [5]) | Activity (THP-1 [7]) | Activity (THP-1 [8]) | Activity (THP-1 [13]) [%] | Activity (THP-1 [14]) | Activity (THP-1 [15]) [%] | Activity (THP-1 [18]) [%] | Activity (THP-1 [19]) [%] | other results
CCCCCNc1ccccc1C(=O)NC12CC3CC(CC(C3)C1)C2 | Active | Active | Active | Active | Active | 50 | Active | 40 | 50 | 50 | Activity (THP-1 [2]): inactive; Activity (THP-1 [4]): inactive; Activity (THP-1 [6]): inactive; Activity (THP-1 [9]): 70%; Activity (THP-1 [10]): inactive; Activity (THP-1 [11]): Dose-Dependent Effect; Activity (THP-1 [12]): inactive; Activity (THP-1 [16]): 50%; Activity (THP-1 [17]): inactive
O=C(NC1CCCCC1)c1cn(CCN2CCOCC2)c2cc(Cl)ccc2c1=O | Active | Active | Active | Active | Active | 60 | Active | 60 | 60 | 40 | Activity (THP-1 [20]): 70%; Activity (THP-1 [21]): inactive; Activity (THP-1 [22]): Active; Activity (THP-1 [23]): inactive; Activity (THP-1 [24]): 70%; Activity (THP-1 [25]): inactive; Activity (THP-1 [26]): inactive; Activity (THP-1 [27]): inactive; Activity (THP-1 [28]): inactive; Activity (THP-1 [29]): Active; Activity (THP-1 [30]): 50%
